Data from EP2905024A1 (Institut Quimic De Sarriá Cets, Fundació Privada, priority 2014, dated 2015).

Experiments:
[1] = test system: subgenomic HCV genotype 1b replicon, I389/NS3-3'/ LucUbiNeo-ET; assay: in vitro antiviral activity: luciferase assay in LucUbiNeo-ET HCV replicon cells; type: cell-based; details: Hepatitis C virus, 48 h, 2 days of incubation, luciferase readout, mean of duplicates
Description: (§1) To analyze the antiviral activity of the compounds, we used a stable cell line, LucUbiNeo-ET, that contains a subgenomic HCV genotype 1b replicon, I389/NS3-3'/ LucUbiNeo-ET, that express luciferase constitutively (Krieger et al, JVI 2001; 75:4614; Frese et al., JGV 2003; 84: 1253-1259). To evaluate the cellular toxicity, we use other cell line, Huh-7/Lunet (Friebe et al., JVI 2005; 79: 380-392), that originally carried a selectable luciferase HCV 1b replicon and was cured by treatment with an HCV-specific inhibitor. These cells are characterized by high permissiveness for HCV RNA replication. LucUbiNeo-ET cell line was cultured at 37°C in a humidified atmosphere with 5% CO2 in Dulbecco's modified Eagle medium (D-MEM) supplemented with high glucose concentration (4.5g/l) (Invitrogen), 10% (vol/vol) heat-inactivated fetal bovine serum (Hyclone, Cultek), 2mM L-Glutamine (Sigma-aldrich), 1mM sodium pyruvate (Sigma-aldrich), 1% MEM NEEA (Sigma-aldrich), and 0.5 mg/ml of Geneticin (G418) (Gibco, Invitrogen). Cured or Huh-7/Lunet cell line was maintained at the same conditions as described above without the addition of Geneticin.
(§2) Antiviral activity was carried out in white-clear bottom 96-well plates, and cytotoxicity assays were performed in clear 96-well plates. Cells were seeded at a density of 10^4/well in 100ul D-MEM without selection of antibiotics. After 24h, nine fivefold serial dilution of compounds, with 3 replicates at each dilution, were prepared in D-MEM and added to the appropriate wells, yielding concentrations of 125 to 0,00032 ug/ml in a final volume of 100 ul of D-MEM. Following 2 days of incubation, we determined the antiviral activity (EC50) by quantifying the luciferase with the Luciferase Bright Glo assay (Promega). Briefly, LucUbiNeo-ET cells were harvested with the addition of 100 ul of luciferase per well, and after 2 minutes of shaking, the light was read in a Luminometer Fluoroskan Ascent FL. Toxicity (CC50) was analysed in the Lunet/HuH7 cells by the addition of 10 ul of MTT (3-(4,5-dimethylthiazol-2-yl)-2,5-diphenyltetrazolium bromide) per well. After 4h of incubation at 37°C in a humidified atmosphere with 5% CO2, the amount of formazan produced was quantified spectrophotometrically at 550/620 nm [C. Pannecouque et al, Nature protocol 2008; 3 (3): 427-434]. The EC50 and CC50 values were calculated for each compound. These assays were done in duplicate and the results shown in Table 1 represent the mean value of these duplicates.

cytotoxicity assay (MTT) = type: cell-based; details: human, Lunet/HuH7 cells, 2 days of incubation, mean of duplicates; for CC50 at 2 days: Huh-7/Lunet cells (cured HCV replicon cells)
Description: as §1, §2

| Compound | EC50 [1] | CC50 at 2 days (cytotoxicity assay (MTT)) | CC50 at 48 h (cytotoxicity assay (MTT); huh-7/lunet cells) |
| --- | --- | --- | --- |
| Nc1nc(Nc2ccccc2)nc2[nH]c(=O)c(-c3ccccc3)cc12 [Example 37, 4-amino-6-phenyl-2-(phenylamino)pyrido[2,3-d]pyrimidine-7(8H)-one] | < 1 µM | 10 to 25 µM |  |
| O=c1[nH]c2nc(Nc3ccccc3)[nH]c(=O)c2cc1-c1ccccc1 [Example 30, 6-phenyl-2-(phenylamino)pyrido[2,3-d]pyrimidine-4,7(3H,8H)-dione] | 5 to 22 µM | ≥ 25 µM |  |
| CCCOCCNc1nc(Nc2ccccc2)nc2c1CC(c1c(Cl)cccc1Cl)C(=O)N2 (stereo not drawn) [Example 11, 6-(2,6-dichlorophenyl)-2-(phenylamino)-4-((2-propoxyethyl)amino)-5,6-dihydropyrido[2,3-d]pyrimidine-7(8H)-one] | 5 to 22 µM | ≥ 25 µM |  |
| Cn1c(=O)c(-c2ccc(F)cc2)cc2c(N3CCCC3)nc(N)nc21 [Example 43] | 5 to 22 µM |  | ≥ 25 µM |
| Cn1c(=O)c(-c2c(F)cccc2C(F)(F)F)cc2c(N)nc(Nc3ccccc3)nc21 [Example 51, 4-amino-6-(2-fluoro-6-(trifluoromethyl)phenyl)-8-methyl-2-(phenylamino) pyrido[2,3-d]pyrimidine-7(8H)-one] | 1 to 5 µM | < 10 µM |  |
| O=C1Nc2nc(Nc3ccccc3)[nH]c(=O)c2CC1c1ccccc1 (stereo not drawn) [Example 18, 6-phenyl-2-(phenylamino)-5,6-dihydropyrido[2,3-d]pyrimidine-4,7(3H,8H)-dione] | 1 to 5 µM | ≥ 25 µM |  |
| Cn1c(=O)c(-c2c(Cl)cccc2Cl)cc2c(N)nc(Nc3ccc(Br)cc3)nc21 [Example 60, 4-amino-2-((4-bromophenyl)amino)-6-(2,6-dichlorophenyl)-8-methylpyrido[2,3-d]pyrimidine-7(8H)-one] | < 1 µM | < 10 µM |  |
| Nc1nc(Nc2ccccc2)nc2[nH]c(=O)c(-c3c(Br)cccc3Br)cc12 [Example 36, 4-amino-6-(2,6-dibromophenyl)-2-(phenylamino)pyrido[2,3-d]pyrimidine-7(8H)-one] | 5 to 22 µM | ≥ 25 µM |  |
| Cn1c(=O)c(-c2c(F)cccc2F)cc2c(N)nc(Nc3ccccc3)nc21 [Example 47, 4-amino-6-(2,6-difluorophenyl)-8-methyl-2-(phenylamino)pyrido[2,3-d]pyrimidine-7(8H)-one] | < 1 µM | 10 to 25 µM |  |
| CCCOCCNc1nc(Oc2ccccc2)nc2[nH]c(=O)c(-c3ccc(F)cc3)cc12 [Example 32, 6-(4-fluorophenyl)-2-phenoxy-4-((2-propoxyethyl)amino) pyrido[2,3-d]pyrimidine-7(8H)-one] | 1 to 5 µM | ≥ 25 µM |  |
| CCCCn1c(=O)c(-c2c(Cl)cccc2Cl)cc2c(N)nc(Nc3ccccc3)nc21 [Example 56, 4-amino-8-butyl-6-(2,6-dichlorophenyl)-2-(phenylamino)pyrido[2,3-d] pyrimidine-7(8H)-one] | 5 to 22 µM | ≥ 25 µM |  |
| CCCOCCNc1nc(N)nc2[nH]c(=O)c(-c3ccc(F)cc3)cc12 [Example 24, 2-amino-6-(4-fluorophenyl)-4-((2-propoxyethyl)amino) pyrido[2,3-d]pyrimidine-7(8H)-one] | 1 to 5 µM | ≥ 25 µM |  |
| Cn1c(=O)c(-c2ccccc2)cc2c(N)nc(Nc3ccccc3)nc21 [Example 50, 4-amino-8-methyl-6-phenyl-2-(phenylamino)pyrido[2,3-d]pyrimidine-7(8H)-one] | < 1 µM | 10 to 25 µM |  |
| Cn1c(=O)c(-c2c(Cl)cccc2Cl)cc2c(N)nc(Nc3ccccc3)nc21 [Example 48, 4-amino-6-(2,6-dichlorophenyl)-8-methyl-2-(phenylamino)pyrido[2,3-d]pyrimidine-7(8H)-one] | < 1 µM | < 10 µM |  |
| Cn1c(=O)c(-c2c(Cl)cccc2Cl)cc2cnc(Nc3ccccc3)nc21 [Example 53, 6-(2,6-dichlorophenyl)-8-methyl-2-(phenylamino)pyrido[2,3-d]pyrimidine-7(8H)-one] | < 1 µM | < 10 µM |  |
